Test results reported in patent publication US8211660B2, “In-vivo monitoring of circulating apoptotic cells” (The General Hospital Corporation, priority 2004, dated 2012).

Test system: MatLyLu mouse prostate cancer cells
Test: Apoptosis of camptothecin-pretreated MatLyLu cells verified by conventional flow cytometry (FITC-annexin V / propidium iodide)
Type: cell-based
Conditions: MatLyLu cells pretreated with camptothecin
Description: MatLyLu […] prostate cancer cells pretreated with camptothecin were employed as a positive control. It was verified by conventional flow cytometry that more than about 80% of the camptothecin-treated cells undergo apoptosis (i.e. >80% of the treated cells were FITC-annexin V^+ positive and propidium iodide negative). The camptothecin-treated cells were then labeled with the AF647-conjugated annexin-V and injected intravenously into the mouse. The circulating annexin-V^+ cells were measured by focusing a He—Ne laser beam having a wavelength of 633 nm through a slit onto an ear vessel (typically a small artery) and confocally detecting the fluorescent bursts (peaks) as individual cells flowed through the probe beam. The emitted fluorescence was detected by a photomultiplier tube and was digitized for analysis. The confocal detection of the emitted fluorescence allowed continuous monitoring over the measurement period of the labeled cells flowing through the vessel.

CC[C@@]1(O)C(=O)OCc2c1cc1n(c2=O)Cc2cc3ccccc3nc2-1 [camptothecin]
treated cells undergoing apoptosis (FITC-annexin V positive and propidium iodide negative): more than 80%
